Experimental data published in US12702686B2, “Antimicrobial therapy” (priority 2021, dated 2026).
Where no end group is shown, it is not given here.

How the values were obtained:
[1] = tested on: Primary normal human keratinocytes (NHEK); experiment: LDH release cytotoxicity in keratinocytes; assay type: cell-based; details: 24 h, increasing concentrations
Method: NHEKs (ThermoFisher) were cultured in EpiLife medium containing 60 μM CaCl2) (ThermoFisher) supplemented with 1× human keratinocyte growth supplement (ThermoFisher) and 1× Antibiotic Antimycotic (Millipore Sigma) at 37° C., 5% CO 2. All experiments performed on NHEKs were between passages 3 and 5 with cells at 70-80% confluency.

S. pseudintermedius ST71 = experiment: Minimum inhibitory concentration, broth micro dilution; assay type: cell-based, Staphylococcus pseudintermedius; details: synthetic peptides, 18 h incubation
Method: MIC values were determined using a broth micro dilution method. Bacterial cells were grown to mid-late log phase, to an OD600 nm value of roughly 1.0 for each bacterial strain and then normalized to 1×10^7 CFU/mL. The PSMβ peptides or butanol extracts were dissolved in DMSO to a stock concentration of 10 mg/ml. The stock concentrations of antibiotics that were water-soluble were prepared with H2O or 100% ethanol if water-insoluble. The 1×10^7 CFU/ml bacterial cultures (10 μl) were aliquoted into 96-well microtiter plates and mixed with 95 μL of media with or without 2-fold dilutions of the conditioned supernatant, PSMβ peptides, butanol extracts or antibiotics and incubated for 16-18 h at 30° C. with shaking at 250 rpm. Growth inhibition was determined by measuring the OD600 nm readings of each well using a microplate reader (SpectraMax iD3, Molecular Devices). The MIC of each bacterial strain was determined by the lowest peptide concentration that inhibited more than 80% bacterial growth.

Row | Compound | cytotoxicity by LDH release [1] | concentration at which S. pseudintermedius growth was inhibited (S. pseudintermedius ST71)
1 | CC[C@H](C)[C@H](NC(=O)[C@H](Cc1c[nH]c2ccccc12)NC(=O)[C@H](CCCCN)NC(=O)[C@@H](NC(=O)[C@H](CC(C)C)NC(=O)[C@H](CC(=O)O)NC(=O)CNC(=O)[C@@H](NC(=O)[C@@H](NC(=O)[C@H](CO)NC(=O)[C@@H](NC(=O)[C@@H](NC(=O)[C@H](CC(=O)O)NC(=O)[C@H](C)NC(=O)[C@H](C)NC(=O)[C@H](CCSC)NC=O)[C@@H](C)CC)[C@@H](C)CC)[C@@H](C)O)[C@@H](C)CC)C(C)C)C(=O)N[C@H](C(=O)N[C@@H](CC(=O)O)C(=O)N[C@H](C(=O)N[C@H](C(=O)N[C@@H](CC(N)=O)C(=O)N[C@@H](CCCCN)C(=O)N[C@@H](Cc1ccccc1)C(=O)N[C@@H](CCCCN)C(=O)N[C@@H](CCCCN)C(=O)O)C(C)C)[C@@H](C)O)[C@@H](C)CC [PSMγ] | highly cytotoxic | –
2 | Non-Formyl-MSKLTRVIVTSIMTVGFLTATLGLTAGNADAKLEGNGTLSQKQYQRLASQQF (H-MSKLTRVIVTSIMTVGFLTATLGLTAGNADAKLEGNGTLSQKQYQRLASQQF; listed as Staphylococcus felis) [EF-hand domain-containing peptide] | – | > 200 µg/mL
